The assay has as its system DMS79 cells. The assay can be described thus: In vitro growth inhibition and isobologram analysis (CellTiter Glo): DMS79. Format: cell-based, human. Conditions: 5 days, read-out: IC50 (growth), DMS79, alone. On the procedure:
SCLC cells were seeded onto 96 well plates at 3000-5,000 cells/well on the day of treatment. To distinguish synergy from additivity of the combination of LY6H-PBD with Olaparib (selleckchem, Cat #S1060), etoposide (Cell Signaling Technology, Cat #2200S) or cisplatin (Sigma, Cat #P4394), for each combination, a specific isobologram was constructed. […] Concentrations ranging from 0.0001-10 ug/ml were used for 12G7-PBD, from 0.0001 to 100 uM for olaparib, cisplatin, and etoposide. Cell viability was measured 5 days later by CellTiter Glo® Luminescent Cell viability Assay™ (Promega, Madison, WI) according to manufacturer's instructions. Each IC50 was graphically derived from the growth curve graphed by Prism™ showing percent survival vs log drug concentrations.
The 50% growth-inhibitory activity of the drug combinations was measured after 5 days of treatment. The line of additivity for the isobologram was constructed by interpolating the two points corresponding to the IC50 of the two drugs alone. Graphically, synergy, additivity, and antagonism are indicated by a point plotted below, on, or above the line of additivity, respectively.

pIC50: −log10 of the molar value. Read-outs that look alike come from different tables or passages of the source.

As for `N.N.[Cl][Pt][Cl]` [cisplatin], the pIC50 is 6.51. Turning to `COc1cc([C@@H]2c3cc4c(cc3[C@@H](O[C@@H]3O[C@@H]5CO[C@@H](C)O[C@H]5[C@H](O)[C@H]3O)[C@H]3COC(=O)[C@H]23)OCO4)cc(OC)c1O` [etoposide], under “Homo sapiens, DMS-79, 120 h”, the pIC50 was 6.54. On the same count and under the same terms, under `O=C(c1cc(Cc2n[nH]c(=O)c3ccccc23)ccc1F)N1CCN(C(=O)C2CC2)CC1` [olaparib] stands 5.39.

The values are drawn from patent US12296006B2, “Anti-LY6H antibodies and antibody drug conjugates” (Bluefin BioMedicine, Inc., priority 2017, dated 2025).
